# Assays:
# [1] = Barium sulphate scale inhibition in presence of Fe2+ ions; details: 38 mg/l Fe2+ ions, pH 5.5, 80° C., 10 hours
# Experimental: (§1) The scale-inhibiting action of CMI (DP≈10) was determined for barium sulphate. A saturated barium sulphate solution was prepared by mixing a barium chloride solution (380 mg/l) with a sodium sulphate solution (3350 mg/l) in a 1:1 ratio, with a maximum amount of barium sulphate to be formed of 210 mg/l. 5 mg/l, 10 mg/l or 15 mg/l of inhibitor was added to the solution. The pH of the solution was adjusted to 5.5 by addition of 1 ml acetate buffer (3.6 g sodium acetate trihydrate and 0.5 g acetic acid per 100 ml) per 100 ml. The solution was then left to stand at 80° C. After 10 hours the solution was filtered by suction through a 0.45 μm Millipore filter and the barium content of the filtrate was determined. The action of the inhibitor was calculated on the basis of the barium value for the experiment without inhibitor (0 per cent inhibition) and the barium value at which no precipitate was formed (100 per cent inhibition).
# Example 4 was repeated, with the exception that the barium sulphate solution contained 38 mg/l of Fe^2+ ions.
# [2] = Barium sulphate scale inhibition; details: pH 5.5, 80° C., 10 hours
# Experimental: as §1
compound,measurement,setting,value
O=P(O)(O)CN(CCN(CP(=O)(O)O)CP(=O)(O)O)CCN(CP(=O)(O)O)CP(=O)(O)O [Pentaphosphonate (DETPMP)],Inhibition (%) with 5 mg/l,[1]; 5 mg/l inhibitor,12.0%
same,Inhibition (%) with 10 mg/l,[1]; 10 mg/l inhibitor,21.5%
same,Inhibition (%) with 15 mg/l,[1]; 15 mg/l inhibitor,34.5%
same,Inhibition (%) with 5 mg/l,[2]; 5 mg/l inhibitor,18.0%
same,Inhibition (%) with 10 mg/l,[2]; 10 mg/l inhibitor,38.5%
same,Inhibition (%) with 15 mg/l,[2]; 15 mg/l inhibitor,55.5%

# — patent publication US6613899B1, “Method for preventing deposits in oil extraction” (Cooperatie Cosun U.A., priority 1998, dated 2003)
